From patent publication US8618068B2, “Methods and low dose regimens for treating red blood cell disorders” (priority 2009, dated 2013)
“Also recorded” adds a separate entry of the source.

Tests used:
[1] = in vivo; set-up: species or system Beagle dogs; details: Beagle, dog; for AUC(0-inf): both sexes, po
Experimental: DMB was administered orally by capsule to Beagle dogs for 26 weeks at dose levels of 0, 50, 150 and 300 mg/kg/day. Plasma levels were measured at 1 to 24 hours post-dose on Days 1 and 181. Peak plasma concentrations were measured at 1 to 4 hour postdose on Day 0, and at 1 to 8 hours postdose during Week 26. Systemic exposure increased with increasing dose level and was greater than dose-proportional on Day 0 and Week 26. […] The peak and extent of systemic exposure of Beagle dogs to DMB were similar in males and females. Systemic exposure values at Week 26 were 138 to 153% of the values at Day 0 for 50 mg/kg, 130% for 150 mg/kg, and 100 to 102% 300 mg/kg dose levels, indicating an accumulation of DMB during this time period for the 50 and 150 mg/kg dose levels and no accumulation at the 300 mg/kg dose level.
Toxicokinetic information from the 26-week rat (Table 7) and 26-week dog toxicity studies (Table 8) are compared to systemic exposure (AUC) levels determined in a clinical study.

[2] = Dose range-finding embryo/fetal developmental toxicity in rats; type: in vivo
Experimental: DMB was administered orally by gavage to 4 groups of 8 bred female Sprague Dawley rats once daily from gestation Days 6 through 17, at dosage levels of 50, 150, 500 and 1000 mg/kg/day. […] On gestation Day 20, a laparohysterectomy was performed on each surviving female.

[3] = Half-life of DMB (summary statement); details: in vivo
[4] = Phase 1 single dose clinical study, safety; type: in vivo, human
Experimental: The first clinical study was a phase 1, double-blind, placebo-controlled, single dose study of the tolerability, safety and pharmacokinetics of DMB in 32 healthy volunteers. Healthy, fasting adult volunteers received single oral doses of DMB or placebo capsules at one of four dose levels (2 mg/kg, 5 mg/kg, 10 mg/kg and 20 mg/kg). Six subjects received study drug (24 subjects total) and 2 subjects received placebo at each dose level. The 8 placebo subjects received a capsule containing only the excipients from the capsules containing the active agent. Subjects at the 20 mg/kg also received a second dose of study drug after a defined meal, one week following the fasting dose.
Physical examinations, vital signs and neurologic examinations were normal throughout the study. No signs or symptoms of clinical significance were observed. One subject developed transient mild hypotension after dosing, which was clinically asymptomatic, and the Principal Investigator considered this finding to be of no clinical significance. Postural changes in blood pressure and pulse were not evaluated. There were 3 electrocardiogram abnormalities among patients treated with active study medication and 3 among the placebo subjects, all of which were considered to be of no clinical significance. All laboratory studies, including chemistries, coagulation studies, hematology studies and urinalyses were either normal or of no clinical significance except for one subject in whom a urinary tract infection was diagnosed but not disclosed prior to study test article administration. The data are reported for each cohort including the N of subjects that received placebo or study drug. All events were assessed as mild by the Principal Investigator. The reported AEs are shown by Cohort following Table 10. The only AEs considered possibly or probably related to study medication included upper abdominal pain, which occurred in one subject in the 2 mg/kg treatment group, one subject with dizziness in the placebo treatment group, and one subject with dysphoria in the 10 mg/kg treatment group. No subjects discontinued treatment due to AEs and there were no SAEs reported in this study.

[5] = tested on: fetal hemoglobin (HbF); assay: Phase 2 trial in sickle cell disease patients, HbF, total Hgb, fetal globin mRNA; type: in vivo, human
Experimental: A randomized, blinded dose-ranging Phase 1/2 clinical trial was performed in 24 US and Jamaican adult patients with sickle cell disease (including HbSS or S/β thalassemia). DMB was administered once daily for six week cycles of daily therapy with a 2 week treatment break between two cycles, then followed by a final 4 weeks without treatment. Three dose levels (10, 20, 30 mg/kg/day) were studied sequentially. Four out of 24 subjects were treated with placebo and 21 subjects were evaluable. Seven Patients (5 active/2 placebo) at 10 mg/kg, 6 patients (5 active/1 placebo) at 20 mg/kg, and 9 patients (7 active/1 placebo) at 30 mg/kg were randomized in the study. Patients ranged in age from 14 to 56 with a median age of 31 and were comprised of […]. Patients were followed for hematologic parameters focusing on fetal hemoglobin (HbF). HbF was measured by a Waters Empower 32 HPLC system with a Synchropak CM-300 column.

CCC(C)(C)C(=O)[O-].[Na+] [DMB, Sodium 2,2-dimethylbutyrate]
AUC(0-inf) ([1]; 50 mg/kg): 127 µg·h/mL
AUC(0-inf) ([1]; 150 mg/kg): 473 µg·h/mL
AUC(0-inf) ([1]; 300 mg/kg): 1470 µg·h/mL
increase in exposure values for a 6-fold increase in dose (50 to 300 mg/kg/day) ([1]; female): 10.31 fold
increase in exposure values for a 6-fold increase in dose (50 to 300 mg/kg/day) ([1]; female, 26 weeks): 7.58 fold
increase in exposure values for a 6-fold increase in dose (50 to 300 mg/kg/day) ([1]; male): 12.85 fold
increase in exposure values for a 6-fold increase in dose (50 to 300 mg/kg/day) ([1]; male, 26 weeks): 8.35 fold
maternal or fetal effects ([2]; 50 mg/kg/day): No maternal or fetal effects
postimplantation loss ([2]; 150 mg/kg/day): Increased postimplantation loss
acceptability of dosage for a definitive embryo/fetal developmental toxicity study ([2]; rat, in vivo): considered unacceptable
half-life [3]: 9 to 11 h
Subject incidence of Abdominal pain, upper ([4]; DMB N = 24): 4%
Subject incidence of Abdominal tenderness ([4]; DMB N = 24): 4%
Subject incidence of Cough ([4]; DMB N = 24): 4%
Subject incidence of Diarrhea ([4]; DMB N = 24): 8%
Subject incidence of Dizziness ([4]; DMB N = 24): 13%
Subject incidence of Dysguesia ([4]; DMB N = 24): 4%
Subject incidence of Dysphoria ([4]; DMB N = 24): 4%
Subject incidence of Ecchymosis ([4]; DMB N = 24): 4%
Subject incidence of Epistaxis ([4]; DMB N = 24): 4%
Subject incidence of Fatigue ([4]; DMB N = 24): 4%
Subject incidence of Headache ([4]; DMB N = 24): 29%
Subject incidence of Insomnia ([4]; DMB N = 24): 4%
Subject incidence of Myalgia ([4]; DMB N = 24): 4%
Subject incidence of Nausea ([4]; DMB N = 24): 8%
Subject incidence of Odynophagia ([4]; DMB N = 24): 4%
Subject incidence of Palpitations ([4]; DMB N = 24): 4%
Subject incidence of Syncope vasovagal ([4]; DMB N = 24): 4%
Subject incidence of URI ([4]; DMB N = 24): 8%
Subject incidence of Vessel puncture site hematoma ([4]; DMB N = 24): 17%
electrocardiogram abnormalities among patients treated with active study medication ([4]; considered of no clinical significance): 3
SAEs reported ([4]; single doses 2 to 20 mg/kg): no SAEs
clinically significant adverse events ([4]; single doses 2 to 20 mg/kg): no clinically significant adverse events; also recorded: no significant AEs
responding subjects in whom lactate dehydrogenase (LDH) declined ([5]; 30 mg/kg doses): 4 of 5
dose level with the largest increase in HbF ([5]; Day 97): 30 mg/kg
dose level with the largest increase in total Hgb ([5]; Day 97): 30 mg/kg
change in percent HbF at Day 97 ([5]; all 3 DMB dose groups, compared to a decrease in placebo): median increases
change in absolute HbF at Day 97 ([5]; all three DMB dose groups): Median increases
change in total Hgb at Day 97 ([5]; all three DMB dose groups, compared to a decrease in placebo): median increases
percentage of F-cells and percentage of fetal hemoglobin ([5]; in some instances (FIG. 22, 10 mg/kg)): increased throughout the treatment period
